Data published in paper doi:10.1101/2022.07.18.500363v1 (biorxiv, 2022).
Read-outs that look alike come from different tables or passages of the source.

Biological target: PL^pro (papain-like protease, domain of nsp3) (Severe acute respiratory syndrome coronavirus 2, UniProt P0DTD1)
Experiment: fluorogenic short peptide protease assay, 384-well
Format: biochemical

| SMILES | IC50 [µM] | IC50 (read-out: IC50PLpro, short peptide substrate, 37 °C, 10-60 min preincubation) [µM] |
| --- | --- | --- |
| CC1=NN(c2ccc(C)c(C)c2)C(=O)C1=NNc1cccc(-c2cccc(C(=O)O)c2)c1O [DDL-701, eltrombopag] | 13 | – |
| CC1=NN(c2ccc(C)c(C)c2)C(=O)/C1=N/Nc1cccc(-c2cccc(-c3nnn[nH]3)c2)c1O [DDL-713, thrombopoietin receptor agonist-1] | – | ~54 |
| COc1cc(C(=O)NS(=O)(=O)c2ccccc2C)ccc1Cc1cn(C)c2ccc(NC(=O)OC3CCCC3)cc12 [DDL-715, zafirlukast] | ~24 | – |
